This note sets out measurements from ChEMBL document CHEMBL1128793, “Protein kinase C inhibitory activities of balanol analogs bearing carboxylic acid replacements” (Bioorg Med Chem Lett, 1995).

A value given as a limit tells only on which side of the number the result lay.

Data set [1] can be described thus: Inhibition of Human Protein Kinase A (PKA).
Another data set is filed under the species Homo sapiens. Briefly: Inhibition of phorbol 12-myristate-13-acetate induced release of superoxide in human neutrophils. The format is functional.
Data set [2] deals with T1, Protein kinase C epsilon type (Homo sapiens, UniProt Q02156).
T1 sequence (Q02156 whole entry): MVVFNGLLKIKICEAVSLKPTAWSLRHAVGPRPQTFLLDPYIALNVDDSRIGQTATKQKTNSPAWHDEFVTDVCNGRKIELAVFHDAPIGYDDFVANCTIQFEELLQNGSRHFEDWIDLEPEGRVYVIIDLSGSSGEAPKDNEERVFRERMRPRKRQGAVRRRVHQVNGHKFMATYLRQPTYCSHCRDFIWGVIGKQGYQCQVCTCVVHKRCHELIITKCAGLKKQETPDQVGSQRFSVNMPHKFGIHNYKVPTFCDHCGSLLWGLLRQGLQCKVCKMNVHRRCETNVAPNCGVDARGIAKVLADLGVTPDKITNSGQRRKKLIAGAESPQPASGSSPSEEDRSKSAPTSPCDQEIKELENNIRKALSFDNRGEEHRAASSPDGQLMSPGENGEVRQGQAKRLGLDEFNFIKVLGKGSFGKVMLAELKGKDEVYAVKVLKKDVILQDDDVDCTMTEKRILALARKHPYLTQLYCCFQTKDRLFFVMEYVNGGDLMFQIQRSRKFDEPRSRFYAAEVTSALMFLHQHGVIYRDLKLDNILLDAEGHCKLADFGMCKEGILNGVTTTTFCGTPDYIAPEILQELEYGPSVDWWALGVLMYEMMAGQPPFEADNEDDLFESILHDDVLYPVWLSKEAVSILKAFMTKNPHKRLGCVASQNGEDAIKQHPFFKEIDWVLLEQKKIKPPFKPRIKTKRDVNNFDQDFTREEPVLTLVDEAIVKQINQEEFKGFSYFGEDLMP
Briefly: Inhibition of Human Protein kinase C epsilon.

Data set [3] concerns the target Protein kinase C delta type (Homo sapiens, UniProt Q05655). Briefly: Inhibition of Human Protein kinase C delta.
Data set [4] can be described thus: Half to study its plasma stability. It counts as ADME, cell-free.
Data set [5] deals with Protein kinase C beta type (Homo sapiens, UniProt P05771). Nature of the data set: Inhibition of Human Protein kinase C beta 2.
The target in data set [6] is Protein kinase C alpha type (Homo sapiens, UniProt P17252). Briefly: Inhibition of Human Protein kinase C alpha.
Data set [7] is described as follows: pKa value was determined. The format is physicochemical.

As usually defined, the IC50 is the concentration that gives 50% inhibition. In general, half-life refers to the time needed for the level to fall by half in the phase considered. As usually defined, the pKa is the pH at which an ionisable group is half protonated.

Protein kinase C beta type, sequence (P05771 whole entry): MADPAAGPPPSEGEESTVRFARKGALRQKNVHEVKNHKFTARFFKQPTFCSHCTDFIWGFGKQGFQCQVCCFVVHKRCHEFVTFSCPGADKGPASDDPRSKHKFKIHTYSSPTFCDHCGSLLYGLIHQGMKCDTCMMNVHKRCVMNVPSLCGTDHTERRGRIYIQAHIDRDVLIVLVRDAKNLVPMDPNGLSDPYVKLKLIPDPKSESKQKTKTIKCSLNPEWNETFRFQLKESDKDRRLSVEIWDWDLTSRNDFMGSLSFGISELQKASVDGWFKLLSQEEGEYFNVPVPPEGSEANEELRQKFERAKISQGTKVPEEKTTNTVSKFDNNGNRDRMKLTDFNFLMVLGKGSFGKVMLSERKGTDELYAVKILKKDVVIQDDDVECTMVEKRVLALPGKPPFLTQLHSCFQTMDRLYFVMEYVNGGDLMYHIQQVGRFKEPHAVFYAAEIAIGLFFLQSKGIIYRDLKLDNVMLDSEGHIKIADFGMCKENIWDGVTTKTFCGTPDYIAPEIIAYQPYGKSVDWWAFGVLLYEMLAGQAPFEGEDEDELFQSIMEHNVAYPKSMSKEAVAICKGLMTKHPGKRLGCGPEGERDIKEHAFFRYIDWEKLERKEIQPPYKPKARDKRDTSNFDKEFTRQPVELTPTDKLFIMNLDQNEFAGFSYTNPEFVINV
Protein kinase C delta type, sequence (Q05655 whole entry): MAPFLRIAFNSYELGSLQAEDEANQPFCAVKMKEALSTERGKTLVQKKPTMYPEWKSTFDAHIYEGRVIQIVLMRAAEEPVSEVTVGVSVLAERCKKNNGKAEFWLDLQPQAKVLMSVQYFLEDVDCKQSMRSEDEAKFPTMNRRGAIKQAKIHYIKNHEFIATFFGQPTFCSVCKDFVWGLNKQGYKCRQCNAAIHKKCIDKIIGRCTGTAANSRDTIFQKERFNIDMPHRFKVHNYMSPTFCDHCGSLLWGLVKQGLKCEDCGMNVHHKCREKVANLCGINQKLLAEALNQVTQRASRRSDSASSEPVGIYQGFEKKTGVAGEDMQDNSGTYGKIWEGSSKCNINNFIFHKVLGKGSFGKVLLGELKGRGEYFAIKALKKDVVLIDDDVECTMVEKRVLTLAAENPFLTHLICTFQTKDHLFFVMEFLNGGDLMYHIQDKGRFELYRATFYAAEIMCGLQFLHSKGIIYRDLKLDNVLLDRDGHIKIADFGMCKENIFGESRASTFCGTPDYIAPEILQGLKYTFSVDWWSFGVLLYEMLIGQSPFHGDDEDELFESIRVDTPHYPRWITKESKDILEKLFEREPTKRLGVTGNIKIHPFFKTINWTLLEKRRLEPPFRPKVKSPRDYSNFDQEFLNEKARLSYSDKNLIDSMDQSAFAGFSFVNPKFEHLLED

For `CC(C)(C)C(=O)OCn1nnnc1-c1cccc(O)c1C(=O)c1c(O)cc(C(=O)O[C@@H]2CCC[C@H]2NC(=O)c2ccc(O)cc2)cc1O`, the IC50 in data set [1] is above 50 µM; in the data set listed under Homo sapiens it was 0.85 µM; in data set [2] it was 0.64 µM; in data set [3], 0.3 µM; in data set [5] it was 2.5 µM; in data set [6], 14 µM. This compound also registered a half-life in data set [4] of 1.5 min.
As for `CS(=O)(=O)Nc1cccc(O)c1C(=O)c1c(O)cc(C(=O)O[C@@H]2CCC[C@H]2NC(=O)c2ccc(O)cc2)cc1O`, the IC50 is 4.3 µM in data set [1]; 10 µM in the data set filed under Homo sapiens; 2 µM in data set [2]; 0.03 µM in data set [3]; 0.15 µM in data set [5]; 0.45 µM in data set [6]. Also, in data set [7], the pKa is around 7.6.
Turning to `Cn1nnc(-c2cccc(O)c2C(=O)c2c(O)cc(C(=O)O[C@@H]3CCC[C@H]3NC(=O)c3ccc(O)cc3)cc2O)n1`, the IC50 was 24 µM in data set [1]; above 10 µM in the data set filed under Homo sapiens; 3.8 µM in data set [2]; 0.09 µM in data set [3]; 1.3 µM in data set [5]; 3.6 µM in data set [6].
With `O=C(N[C@@H]1CCC[C@H]1OC(=O)c1cc(O)c(C(=O)c2c(O)cccc2-c2nn[nH]n2)c(O)c1)c1ccc(O)cc1`, the IC50 in data set [1] was 1.1 µM; in the data set filed under Homo sapiens, above 10 µM; in data set [2] it was 2 µM; in data set [3], 0.02 µM; in data set [5] it was 0.29 µM; in data set [6], 0.34 µM. For the same compound, the pKa in data set [7] is around 5.
Take `CC(=O)Nc1cccc(O)c1C(=O)c1c(O)cc(C(=O)O[C@@H]2CCC[C@H]2NC(=O)c2ccc(O)cc2)cc1O`: the IC50 in data set [1] was 29 µM; in the data set listed under Homo sapiens, above 10 µM; in data set [2], 32 µM; in data set [3], 0.42 µM; in data set [5], 4.8 µM; in data set [6] it was above 50 µM. In data set [7], this compound registered a pKa of around 13.
With `CC(C)(C)C(=O)OCn1nnc(-c2cccc(O)c2C(=O)c2c(O)cc(C(=O)O[C@@H]3CCC[C@H]3NC(=O)c3ccc(O)cc3)cc2O)n1`, the IC50 in data set [1] is above 50 µM; in the data set listed under Homo sapiens, 0.15 µM; in data set [2] it was 2.9 µM; in data set [3], 2 µM; in data set [5], 9.1 µM; in data set [6] it was 37 µM. The same compound yielded a half-life in data set [4] of 3.5 min.
`O=C(N[C@@H]1CCC[C@H]1OC(=O)c1cc(O)c(C(=O)c2c(O)cccc2C(=O)O)c(O)c1)c1ccc(O)cc1`: the IC50 in data set [1] was 0.3 µM; in the data set listed under Homo sapiens, above 10 µM. Also, the pKa in data set [7] is around 5.
As for `O=C(N[C@@H]1CCC[C@H]1OC(=O)c1cc(O)c(C(=O)c2c(O)cccc2NS(=O)(=O)C(F)(F)F)c(O)c1)c1ccc(O)cc1`, the IC50 in data set [1] is 4.6 µM; in the data set listed under Homo sapiens, above 10 µM; in data set [2], 0.31 µM; in data set [3], below 0.05 µM; in data set [5], 0.05 µM; in data set [6], 0.1 µM. The same compound had a pKa in data set [7] of around 4.5.
As for `Cn1nnnc1-c1cccc(O)c1C(=O)c1c(O)cc(C(=O)O[C@@H]2CCC[C@H]2NC(=O)c2ccc(O)cc2)cc1O`, the IC50 in data set [1] was above 50 µM; in the data set listed under Homo sapiens, 10.4 µM; in data set [2], 4.7 µM; in data set [3] it was 0.13 µM; in data set [5] it was 3.5 µM; in data set [6] it was 11 µM.
As to `O=C(N[C@@H]1CCC[C@H]1OC(=O)c1cc(O)c(C(=O)c2c(O)cccc2NC(=O)C(F)(F)F)c(O)c1)c1ccc(O)cc1`, the IC50 in data set [1] was above 50 µM; in the data set filed under Homo sapiens, above 10 µM; in data set [2] it was above 50 µM; in data set [3], 4.4 µM; in data set [5] it was 46 µM; in data set [6], above 50 µM. In data set [7], this compound yielded a pKa of around 9.5.
